Laboratory results taken from patent US10934529B2, “Three dimensional hydrogels for culturing organoids” (Ecole Polytechnique Fèdèrale de Lausanne, priority 2015, dated 2021).
Entries after “also recorded” stand apart in the source; their conditions may differ.

Tests used:
Format in all cases: cell-based, mouse
[1] = system: intestinal stem cells (ISCs); experiment: ISC colony formation efficiency / ISC expansion in hydrogels; details: for Expansion of Lgr5+ cells: supplement to standard intestinal organoid growth medium, PEG-RGD culture; for ISC colony formation, ECM component in combination with RGD / ISC colony formation / self-renewal, ECM component alone: component in soft (300 Pa) or stiff (1300 Pa) PEG matrices; for ISC colony formation / self-renewal, ECM component alone: without RGD
Protocol: Freshly isolated crypts or single cells from dissociated colonies were added to the Matrigel or hydrogels precursor solution and cast in 20-μL droplets at the bottom of wells in 24-well plate. […] For single cell culture, thiazovivin (2.5 μM; Stemgent) and Jagged-1 peptide ([…]; Anaspec) was included in the medium during the first two days. Broad spectrum protease inhibitor, GM6001, was added to the medium while embedding the cells in PEG hydrogels. Every two days the growth factors were replenished and the full medium was changed.
(§1) To quantify the colony formation efficiency of single embedded ISCs, phase contrast z-stacks spanning the entire thickness of the cell-laden Matrigel or PEG gels were collected (Zeiss Axio Observer Z1) at 5 different locations within the gels. The Cell Counter plugin in ImageJ (NIH) was used to quantify the fraction of cells which had formed colonies at day 4 after seeding. To assess the viability of intestinal tissue fragments embedded in PEG, phase contrast images of the entire gel were collected. The fraction of viable tissues was estimated based upon the epithelial morphology: tissues that featured an epithelial monolayer surrounding a central lumen after 24 h of embedding were deemed viable.

Lgr5-EGFP = Lgr5-EGFP reporter expression in colonies and organoids; details: cultured in the presence of collagen-I
Excerpt: Lgr5-EGFP was expressed in the expected pattern, localized to the crypt-like buds of the organoids (FIG. 3B). […] Stem cell differentiation into functional cell types was confirmed by immunofluorescence analysis. Staining for lysozyme verified the presence of Paneth cells in the expected locations, interspersed with Lgr5+ stem cells in the characteristic checkerboard pattern (FIG. 3F). The organoids therefore retained the normal characteristics of epithelial cell organoids during culture in the hydrogels.
Intestinal crypts were extracted from 5-10 week old heterozygous Lgr5-EGFP-IRES-CreERT2 mice (Jackson Laboratory), following animal experimentation protocols prescribed by EPFL and FELASA.

ISC colonies = experiment: ISC colony differentiation and intestinal organoid formation; details: for ISC colony differentiation and organoid formation in soft PEG-RGD gels supplied with an ECM component: colonies grown in 1 kPa PEG-RGD, transferred into soft F-PEG-RGD, differentiation conditions; for Organoid formation from ISCs grown in soft laminin-containing gels: after switching to organoid formation conditions
Protocol: To induce stem cell differentiation and organoid formation, the medium was removed, the gels were incubated in PBS (1 hr, […]) to remove residual CHIR99021 and valproic acid, and fresh medium containing EGF, Noggin and Respondin was added. In general, growth factors were replenished every two days, with full medium change taking place every four days.
Intestinal organoids embedded in Matrigel or PEG were fixed with 4% paraformaldehyde (PFA) in PBS (30 min, RT). The fixation process typically led to complete degradation of the Matrigel. […] Following resuspension in water, the organoids were spread on glass slides and allowed to attach by drying. Attached organoids were rehydrated by adding PBS. Following fixation, organoids embedded in PEG or spread on glass were permeabilized with 0.2% Triton X-100 in PBS (1 h, RT) and blocked (10% goat serum in PBS containing 0.01% Triton X-100) for at least 2 h. Samples were subsequently incubated with blocking buffer-dissolved phalloidin-Alexa 546 (Invitrogen) and primary antibodies against lysozyme (1:50; Thermo Scientific) or mucin-2 (1:25; Santa Cruz) (overnight, 4° C.). After washing with PBS for 3 h (during which PBS was replaced every hour), samples were incubated with secondary antibody (Alexa 647) organoids were imaged in epifluorescence (Zeiss Axio Observer Z1) or confocal (Zeiss LSM 710) mode.

[2] = system: freshly-isolated intestinal crypts; experiment: Survival and morphogenesis of freshly isolated intestinal crypts embedded in 3D matrices; details: component presented alongside RGD in PEG-RGD hydrogel
Excerpt: Matrigel is currently used to grow epithelial organoids. To address the question of whether Matrigel serves as merely a passive 3D scaffold, providing physical support, or actively influences organoid formation by presenting essential cues, freshly-isolated intestinal crypts were embedded into enzymatically crosslinked PEG hydrogels, which are soft and hydrated and thus mimic the basic physical properties of Matrigel without providing any biochemical signals.
Intestinal crypt isolation: Mouse intestine crypts were isolated following procedures known in the art. Briefly, the proximal part of the intestine was harvested, opened longitudinally and washed with ice-cold PBS. The luminal side of the intestine was scraped using a glass slide to remove luminal content and villous structures. After washing with ice-cold PBS again, the intestine was cut into 2-4 mm pieces with scissors. The pieces were transferred to a 50 ml Falcon tube and further washed with cold PBS (5-10 times) with gentle vortexing. […]
To quantify the colony formation efficiency of single embedded ISCs, phase contrast z-stacks spanning the entire thickness of the cell-laden Matrigel or PEG gels were collected (Zeiss Axio Observer Z1) at 5 different locations within the gels. The Cell Counter plugin in ImageJ (NIH) was used to quantify the fraction of cells which had formed colonies at day 4 after seeding. […]

intestinal organoids = experiment: Viability, growth and morphogenesis of intestinal organoids / tissue fragments in hydrogels
Excerpt: To identify a short sequence that supports intestinal cell survival, a library of soft (G′=200 Pa) hydrogels was created, in which specific binding sequences from the laminin al subunit (Table 1) were tethered to the PEG backbone.
as §1

Cc1c[nH]c(-c2cnc(NCCNc3ccc(C#N)cn3)nc2-c2ccc(Cl)cc2Cl)n1 [CHIR99021, reference compound]
Expansion of Lgr5+ cells [1]: increased

CNC(=O)[C@H](Cc1c[nH]c2ccccc12)NC(=O)[C@@H](CC(=O)NO)CC(C)C [GM6001, reference compound]
Colony formation efficiency on blocking MMP activity, high matrix stiffness ([1]; printed: within non-degradable gels, high stiffness): reduced it to levels observed in non-degradable gels
Colony formation efficiency on blocking MMP activity, low matrix stiffness ([1]; printed: within non-degradable gels, low stiffness): did not alter colony formation efficiency

Cc1ccc2c(c1)C(=O)C1(O)CCN(c3ccccc3)C1=N2 (stereo not drawn) [blebbistatin, reference compound]
Effect of blocking myosin-mediated contractility on colony formation efficiency ([1]; PEG-RGD matrices of varying stiffness): abolished the stiffness-induced increase in colony formation efficiency

CCCC(CCC)C(=O)O [valproic acid, reference compound]
Expansion of Lgr5+ cells [1]: increased

Arginine-Glycine-Aspartic Acid [RGD, reference compound]
Shear modulus at which ISC expansion / colony formation efficiency is optimal ([1]; RGD-containing gels of varying stiffness): 1.3 kPa
RGD concentration at which ISC colony formation efficiency reached a plateau ([1]; TG-PEG-RGD, varying RGD): approximately 500 μM

Collagen-I: ECM component incorporated in PEG hydrogels
ISC colony formation, ECM component in combination with RGD [1]: did not have a striking effect
ISC morphology ([1]; soft hydrogels with collagen-I and RGD): adopted a spindle-like morphology
Lgr5-EGFP in viable cells and colonies (Lgr5-EGFP): largely devoid of Lgr5-EGFP

Fibronectin
ISC colony formation, ECM component in combination with RGD [1]: no added effect
ISC colony formation / self-renewal, ECM component alone [1]: appreciable colony formation only in stiff matrices
ISC colony differentiation and organoid formation in soft PEG-RGD gels supplied with an ECM component (ISC colonies): failed to support ISC colony differentiation and organoid formation

Hyaluronic acid [reference compound]
Crypt viability [2]: synergistic increase in crypt viability
ISC colony formation, ECM component in combination with RGD [1]: did not appear to influence
ISC colony differentiation and organoid formation in soft PEG-RGD gels supplied with an ECM component (ISC colonies): failed to support ISC colony differentiation and organoid formation

Laminin-111: extracellular matrix glycoprotein, heterotrimer of α, β and γ chain
ISC colony formation, ECM component in combination with RGD [1]: increased colony formation efficiency
ISC colony formation / self-renewal, ECM component alone [1]: effectively supported colony formation in soft matrices; also recorded: supports ISC colony formation within soft matrices
Stiffness at which ISC colony formation efficiency peaks ([1]; laminin-containing gels): 700 Pa
ISC colony formation ([1]; soft hydrogels containing both RGD and laminin-111): 30-50%
Efficiency in inducing ISC colony formation compared with RGD ([1]; soft, 300 Pa hydrogel): significantly more efficient
Organoid formation from ISCs grown in soft laminin-containing gels (ISC colonies; listed as laminin): give rise to organoids
Organoid formation from ISCs grown in soft laminin-containing gels (ISC colonies; listed as laminin-111): a small portion of the ISC colonies gave rise to intestinal organoids
ISC colony differentiation and organoid formation in soft PEG-RGD gels supplied with an ECM component (ISC colonies): pronounced morphogenesis and organoid formation; also recorded: required for organoid formation

Perlecan: ECM component incorporated in PEG hydrogels
ISC colony formation, ECM component in combination with RGD [1]: starkly increased colony formation efficiency
ISC colony formation / self-renewal, ECM component alone [1]: did not alter ISC self-renewal
ISC colony differentiation and organoid formation in soft PEG-RGD gels supplied with an ECM component (ISC colonies): failed to support ISC colony differentiation and organoid formation

RKRLQVQLSIRT [AG73, synthetic peptide derived from the globular domain of the laminin al chain]
Crypt viability [2]: synergistic increase in crypt viability
Organoid viability (intestinal organoids; soft (G'=200 Pa) PEG hydrogels with tethered laminin a1 subunit binding sequences): significantly enhanced organoid viability
Effect of amount of tethered AG73 on organoid viability and growth (intestinal organoids; varying amount of AG73 tethered to PEG gel backbone): dose-dependent effect; also recorded: concentration-dependent
ISC colony differentiation and organoid formation in soft PEG-RGD gels supplied with an ECM component (ISC colonies): showed some early signs of differentiation and morphogenesis; also recorded: failed to support ISC colony differentiation and organoid formation

laminin-511: ECM component incorporated in PEG hydrogels
ISC colony formation, ECM component in combination with RGD [1]: no effect
ISC colony formation / self-renewal, ECM component alone [1]: no effect
